Test results from patent publication US6872803B1, “Peptides” (Kyowa Hakko Kogyo Co., Ltd., priority 1993, dated 2005).
Where a SMILES comes first, the peptide text is derived from it. Bridges are numbered along the chain shown (N, C = ends). [ ]: non-standard residue; d: D form. Hyp = O=C(O)[C@@H]1C[C@@H](O)CN1

Legend:
[1] = test system: trypsin; assay: in vitro; conditions: pH 7.2
Method: To this was added trypsin (Sigma Co.) in an amount of 1/20 weight of compound (1) or (b). The resulting solution was incubated at 37° C. and sampled at intervals. The samples were analyzed by HPLC, using a reversed-phase column (YMC-Pack, ODS-AM, 150×6 mm I.D.). Elution was carried out by linear gradient elution using acetonitrile (0% to 45%) containing 0.1% TFA for 30 minutes. Absorbance at 220 nm of the eluates was measured.

[2] = test system: T1, α-chymotrypsin; assay: Stability to α-chymotrypsin; type: in vitro ADME; conditions: α-chymotrypsin (Sigma Co.); after 6 hours; α-chymotrypsin 1/10 weight, pH 7.2, 37° C.; read-out: residual amount remaining
T1 construct: purchased Sigma Co
Method: (§1) To this were added α-chymotrypsin (Sigma Co.) and N^α-p-tosyl-L-lysine chloromethyl ketone (Sigma Co.) each in an amount of 1/10 weight of compound (2) or (c). […] Absorbance at 220 nm of the eluate was measured.

[3] = test system: prolyl-endopeptidase; assay: in vitro; conditions: prolyl-endopeptidase (Seikagaku Corporation), pH 7.2
Method: (§2) The resulting mixture was incubated at 37° C. and sampled at intervals. The samples were analyzed by HPLC, using a reversed-phase column (YMC-Pack, ODS-AM, 150×6 mm I.D.). Elution was carried out by linear gradient elution using acetonitrile (0% to 45%) containing 0.1% TFA for 30 minutes. Absorbance at 220 nm of the eluate was measured.

[4] = target: prolyl-endopeptidase (Elizabethkingia meningoseptica, UniProt P27028); assay: in vitro; conditions: prolyl-endopeptidase in PBS(−) buffer, pH 7.2
Chain of prolyl-endopeptidase (Elizabethkingia meningoseptica, UniProt P27028) (P27028 21-705): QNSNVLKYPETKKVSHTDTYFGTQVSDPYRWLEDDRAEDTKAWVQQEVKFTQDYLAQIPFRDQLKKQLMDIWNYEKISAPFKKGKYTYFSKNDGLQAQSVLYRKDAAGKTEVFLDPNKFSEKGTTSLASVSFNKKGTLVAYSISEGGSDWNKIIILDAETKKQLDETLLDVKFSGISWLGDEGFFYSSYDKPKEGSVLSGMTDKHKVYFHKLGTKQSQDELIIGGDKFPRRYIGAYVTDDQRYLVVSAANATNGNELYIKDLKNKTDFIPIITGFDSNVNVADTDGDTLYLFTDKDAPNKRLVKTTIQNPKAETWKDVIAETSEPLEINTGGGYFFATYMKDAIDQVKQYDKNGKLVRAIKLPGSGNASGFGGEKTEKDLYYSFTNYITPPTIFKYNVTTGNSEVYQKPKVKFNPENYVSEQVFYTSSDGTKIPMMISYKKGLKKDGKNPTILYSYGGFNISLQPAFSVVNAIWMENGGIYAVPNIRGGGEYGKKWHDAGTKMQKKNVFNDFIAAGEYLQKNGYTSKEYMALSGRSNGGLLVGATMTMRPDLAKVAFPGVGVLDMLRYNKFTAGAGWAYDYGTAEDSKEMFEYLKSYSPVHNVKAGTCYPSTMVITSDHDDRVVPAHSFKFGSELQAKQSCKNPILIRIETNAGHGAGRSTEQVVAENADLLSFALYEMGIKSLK
Method: as §2

[5] = test system: B16-F10 (mouse melanoma) cells; assay: Cell-adhesion inhibiting activity (adhesion of biotin-labeled cells to mouse fibronectin-coated plate); type: cell-based
Method: To a 96-well flat bottom plate (Sumitomo Bakelite Co.) added were […] (5 μg/ml-culture) of mouse fibronectin (produced by Telios Pharmaceutical Inc.). The plate was allowed to stand for 2 hours at room temperature to coat with mouse fibronectin. Each solution was added to the plate. Next, biotin-labeled B16-F10 (mouse melanoma) cells were added thereto and incubated at 37° C. for 30 minutes. After incubation, the non-adhered cells were removed by suction, and the adhered cells were fixed by 0.25% glutaraldehyde/PBS. The thus-fixed cells were washed with Tween-PBS, and peroxidase-labeled avidin D (Vector Co.) was added thereto and reacted for one hour at room temperature. Thereafter, the cells were washed with Tween-PBS and colored with an ABTS solution. Using NJ-2001 (Nippon Intermed Co.), the absorbance of the colored cells at OD415 was measured by colorimetry.
From the absorbance thus measured, the percentage inhibition of adhesion of the cells was obtained according to the following equation: Percentage Inhibition of Cell Adhesion=[(A−B)/A]×100 • A: absorbance in the absence of the test compound • B: absorbance in the presence of the test compound […]

[6] = test system: platelet-rich plasma (PRP); assay: Inhibitory activity against agglutination of platelets stimulated by collagen; type: cell-based, white rabbit; conditions: collagen 10 μg/ml
Method: The blood was collected from the heart of a white rabbit (male weight 2 kg) and mixed with 3.8% sodium citrate (1:9 3.8% sodium citrate/blood). The mixture was centrifuged at 900 r.p.m., and the supernatant was isolated as platelet-rich plasma (PRP). The remaining lower layer was centrifuged at 2500 r.p.m., and the supernatent was isolated as platelet-poor plasma (PPP). These isolates were used in the following test. The percentage of platelet agglutination was measured, using a platelet agglutination measuring device, TE-500 (produced by Elmer Optical Co.). As the standard for platelet agglutination in this test, the percentage of platelet agglutination measured in PRP only was defined as 0%, while that measured in PPP only as 100%. Test solutions each containing a test compound, compound (1) or compound (b) were prepared so as to give a final concentration of 1, 0.3 or 0.1 mM.
Ten μl of re-distilled water (as a control) or the test solution and 200 μl of PRP were put into a cuvet and pre-incubated for 3 minutes, then 10 μl of a collagen that had been prepared to have a final concentration of 10 μg/ml were added thereto, and the percentage of platelet agglutination was measured.

[7] = target: T2, α-chymotrypsin (Bos taurus, UniProt P00766, DEL14-15/DEL147-148); assay: Stability to α-chymotrypsin; type: in vitro ADME; conditions: α-chymotrypsin (Sigma Co.) in PBS(−) buffer; α-chymotrypsin 1/10 weight, PBS(−) pH 7.2, 37° C.
T2 construct: purchased Sigma Co
Method: as §1

[8] = target: T3, BK receptor derived from guinea pig ilea (Cavia porcellus, UniProt O70526); assay: BK-receptor binding inhibiting activity; conditions: 3H-BK 200 pM
T3 construct: from tissue; host or cells: guinea pig ileum membrane fraction
T3 sequence (O70526 1-372): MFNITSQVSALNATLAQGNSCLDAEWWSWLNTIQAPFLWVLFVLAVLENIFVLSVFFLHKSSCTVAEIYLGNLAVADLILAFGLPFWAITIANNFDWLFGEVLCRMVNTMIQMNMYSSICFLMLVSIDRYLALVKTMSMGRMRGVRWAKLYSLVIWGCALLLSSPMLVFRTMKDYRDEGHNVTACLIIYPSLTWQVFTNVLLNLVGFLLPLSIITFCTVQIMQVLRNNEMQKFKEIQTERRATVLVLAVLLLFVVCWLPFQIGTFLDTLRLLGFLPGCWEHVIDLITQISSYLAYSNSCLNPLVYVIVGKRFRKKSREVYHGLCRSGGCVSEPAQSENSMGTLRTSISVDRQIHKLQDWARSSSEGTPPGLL
Method: Inhibition of the binding of BK to the BK receptor derived from guinea pig ilea
Using a polytron (Type PT10/35, Kinematica Gmbh), guinea pig ilea was homogenized in buffer (A) (containing 25 mM N-tris(hydroxymethyl)methyl-2-aminoethane-sulfonic acid-NaOH, pH 6.8) at 4° C.
The suspension thus obtained was centrifuged at 4° C. for 10 minutes at 8,000×g, and the supernatant was collected. The supernatant was further centrifuged at 4° C. for 60 minutes at 40,000×g, and the solid was collected. The solid was suspended in buffer (A), and the resulting suspension was centrifuged at 4° C. for 60 minutes at 40,000×g. The resulting solid was suspended to give a protein content of 2 mg/ml to serve as a membrane fraction. […]
^3H-BK (200 pM) was added to each of the membrane fraction solutions, to which non-labeled BK (final concentration: 1 μM) had been added, a test compound had been added or none of these had been added. […] The filter was washed with buffer (C) (comprising 50 mM Tris-HCl, 1 mM EDTA, pH 7.6), and the radioactivity of the filter was measured, using a liquid scintillation counter (LSC3500, Aroka Co.) to determine the amount of the ^3H-BK bound to the receptor and non-specifically bound 3H-BK. […]

[9] = snake venom peptides, literature; cited from earlier work

## CC(C)[C@H](NC(=O)[C@H](Cc1c[nH]c2ccccc12)NC(=O)[C@@H]1CC(=O)NCC(=O)N[C@@H](CC(N)=O)C(=O)N[C@@H](Cc2c[nH]c3ccccc23)C(=O)N[C@@H](Cc2c[nH]cn2)C(=O)NCC(=O)N[C@@H]([C@@H](C)O)C(=O)N[C@@H](C)C(=O)N2CCC[C@H]2C(=O)N1)C(=O)N[C@H](C(=O)NCC(=O)N[C@@H](CCCNC(=N)N)C(=O)NCC(=O)N[C@@H](CC(=O)O)C(=O)N[C@@H](CO)C(=O)N1CCC[C@H]1C(=O)N[C@@H](C)C(=O)O)[C@@H](C)O [Compound 1] (GNWHGTAPDWVTGRGDSPA-OH; lactam N-9)
[1]; trypsin (Sigma Co.)
  remaining at 9 h, 25 μg/ml: ~60%

## CC(C)[C@H](NC(=O)[C@H](C)NC(=O)[C@H](Cc1ccc(O)cc1)NC(=O)[C@@H](NC(=O)[C@H](Cc1c[nH]c2ccccc12)NC(=O)[C@@H]1CC(=O)NCC(=O)N[C@@H](CC(N)=O)C(=O)N[C@@H](Cc2c[nH]c3ccccc23)C(=O)N[C@@H](Cc2c[nH]cn2)C(=O)NCC(=O)N[C@@H]([C@@H](C)O)C(=O)N[C@@H](C)C(=O)N2CCC[C@H]2C(=O)N1)C(C)C)C(=O)N[C@H](C(=O)NCC(=O)N[C@@H](CCCNC(=N)N)C(=O)NCC(=O)N[C@@H](CC(=O)O)C(=O)N[C@@H](CO)C(=O)N1CCC[C@H]1C(=O)N[C@@H](C)C(N)=O)[C@@H](C)O [Compound 2] (GNWHGTAPDWVYAVTGRGDSPA-NH2; lactam N-9)
[2]
  remaining at 6 h, 25 μg/ml: ~95%

## CSCC[C@H](NC(=O)[C@@H](NC(=O)[C@@H](NC(=O)[C@H](CS)NC(=O)[C@@H]1CCCN1C(=O)[C@H](CC(C)C)NC(=O)CNC(=O)[C@H](CCSC)NC(=O)[C@H](CO)NC(=O)[C@H](Cc1c[nH]c2ccccc12)NC(=O)[C@@H]1CC(=O)NCC(=O)N[C@@H](CC(N)=O)C(=O)N[C@@H](Cc2c[nH]c3ccccc23)C(=O)N[C@@H](Cc2c[nH]cn2)C(=O)NCC(=O)N[C@@H]([C@@H](C)O)C(=O)N[C@@H](C)C(=O)N2CCC[C@H]2C(=O)N1)C(C)C)C(C)C)C(=O)O [Compound 3] (GNWHGTAPDWSMGLPCVVM-OH; lactam N-9)
[3]
  remaining at 7 h, 25 μg/ml: ~60%

## CC[C@H](C)[C@H](NC(=O)[C@H](CS)NC(=O)[C@@H]1CCCN1C(=O)[C@H](CC(C)C)NC(=O)CNC(=O)[C@H](CCSC)NC(=O)[C@H](CO)NC(=O)[C@H](Cc1c[nH]c2ccccc12)NC(=O)[C@@H]1CC(=O)NCC(=O)N[C@@H](CC(N)=O)C(=O)N[C@@H](Cc2c[nH]c3ccccc23)C(=O)N[C@@H](Cc2c[nH]cn2)C(=O)NCC(=O)N[C@@H]([C@@H](C)O)C(=O)N[C@@H](C)C(=O)N2CCC[C@H]2C(=O)N1)C(=O)N[C@@H](Cc1ccccc1)C(=O)N[C@@H](CCSC)C(=O)O [Compound 5] (GNWHGTAPDWSMGLPCIFM-OH; lactam N-9)
[3]
  remaining at 1 h, 25 μg/ml: 63%

## H-SMGLPCIFM-OH [Compound f, H-Ser-Met-Gly-Leu-Pro-Cys-Ile-Phe-Met-OH]
[3]
  remaining at 1 h, 25 μg/ml: 12%

## H-SMGLPCVVM-OH [Compound d, H-Ser-Met-Gly-Leu-Pro-Cys-Val-Val-Met-OH]
[4]
  half-life at 25 μg/ml: < 1 h

## H-VTGRGDSPA-OH [Compound b, H-Val-Thr-Gly-Arg-Gly-Asp-Ser-Pro-Ala-OH]
[5]; B16-F10 cells on mouse fibronectin, 37° C. 30 minutes, read-out: concentration for 50% inhibition of the adhesion of the cells (IC50)
  IC50: 1130 µM
[6]; test compound 0.3 mM
  Percentage of platelet agglutination inhibition (%): 20.3%
[6]; test compound 1.0 mM
  Percentage of platelet agglutination inhibition (%): 61.2%
[1]; trypsin (Sigma Co.) in PBS(−) buffer
  half-life at 25 μg/ml: < 2 h

## H-VYAVTGRGDSPA-NH2 [c, H-Val-Tyr-Ala-Val-Thr-Gly-Arg-Gly-Asp-Ser-Pro-Ala-NH2]
[5]; same test, compound (2) versus compound (c)
  cell adhesion-inhibiting activity (comparison, FIG. 2): almost the same cell adhesion-inhibiting activity
[7]
  half-life at 25 μg/ml: < 1 h

## H-[dR]RP[Hyp]GFS[dF]LR-OH [Compound m]
[8]; test compound 10^−7 M
  Percentage inhibition (%): 68%
[8]; test compound 10^−8 M
  Percentage inhibition (%): 20%

## albolarin
[9]
  activity, times higher than the activity of Gly-Arg-Gly-Asp-Ser: ~1000 times

## flavoridin
[9]
  activity, times higher than the activity of Gly-Arg-Gly-Asp-Ser: ~1000 times

## trigramin
[9]
  activity, times higher than the activity of Gly-Arg-Gly-Asp-Ser: ~1000 times
